Here are results for 18 molecules from US9452985B2, “Tau imaging probe” (GE Healthcare Limited, priority 2010, dated 2016).

Read-outs that look alike come from different tables or passages of the source.

Series [1] has as its target K18-ΔK280 aggregates (Homo sapiens (Human), UniProt P10636, DEL597-597). The series is described as follows: Competitive binding test using [^18F] THK-5105 as radioactive competitor. As to conditions: radioactive ligand [^18F] THK-5105 1.76 nM, K18-ΔK280 aggregates 200 nM, room temperature, one hour. On the procedure:
Regarding the binding of tau imaging probes to tau protein aggregates, a binding test was carried out and evaluated using a K18-ΔK280 construct which contained a 4-repeat structure involved in the formation of beta-sheet structures in the htau40 protein. For K18-ΔK280 (Martin von Bergen et al., THE JOURNAL OF BIOLOGICAL CHEMISTRY (2001), vol. 276, pp. 48165-48174; M. Goedert et al., NEURON (1989), vol. 3, pp. 519-526), an artificial gene fragment which was prepared based on its amino acid sequence was cloned into a pET-3a vector, the resulting plasmid was used to transform Escherichia coli BL21 (DE3) competent cells for protein expression, and the recombinant Escherichia coli cell was cultured to express K18-ΔK280. The K18-ΔK280 expressed was purified according to the method described in the literature (Stefan Barghorn et al., Methods in Molecular Biology, vol. 299, pp. 35-51). In the binding test, aggregates of the purified K18-ΔK280 were made and used.
K18-ΔK280 aggregates were made by preparing 20 μM PBS (pH 7.4) and incubating the K18-ΔK280 in the PBS at 37° C. for 4 days. The state where beta-sheet structures in K18-ΔK280 aggregates were formed was ascertained by thioflavin S fluorescence binding test. The aggregates solution was diluted to 400 nM in assay buffer (PBS, 0.1% BSA) and used in the binding test.
For tau imaging probes other than THK-5105, binding to K18-ΔK280 aggregates was evaluated with a competitive binding test using [^18F] THK-5105 as a radioactive competitor. In the binding test, [^18F] THK-5105 (at a final concentration of 1.76 nM) and a tested compound (at final concentrations of from 0.1 to 1000 nM) coexisted in the reaction system, to which K18-ΔK280 aggregates (at a final concentration of 200 nM) was then added and the mixtures were incubated at room temperature for one hour. The radioactivity of [^18F] THK-5105 binding to the aggregates was determined in a similar way as in the saturation binding test of THK-5105. The percentage of [^18F] THK-5105 bonding in the absence of each tested compound was set to be 100%, and percentages of [^18F] THK-5105 bonding at various concentrations of each of the tested compounds were determined.

Series [2] concerns neurofibrillary tangles. As to the kind of experiment: Staining test on brain section of Alzheimer's disease patients. Format: binding, human. As to conditions: 100 μM solution in 50% ethanol, 10 minutes, fluorescence microscope. The source says: The procedure of staining test on the compounds of the present invention on the brain section of Alzheimer's disease patients is described below:
(1) We used the brain specimens of the temporal lobe or hippocampus from patients who were definitely diagnosed as having Alzheimer's disease pathology. The specimens were obtained from Choju Medical Institute, Fukushimura Hospital, our collaborating research institute, and the consent for use for research purposes was obtained from the patients' bereaved family (Fukushimura Hospital, Ethics Committee Approval No. 20).
(2) The paraffin-embedded brain tissue was sliced to 6 or 8 μm thickness, extended on a slide glass, and dried. The paraffinized brain section was deparaffinized by washing with xylene for 10 minutes×2, 100% ethanol for 5 minutes×2, 90% ethanol for 5 minutes, and running water for 10 minutes in this order.
(3) As a pretreatment for staining with the compounds of the present invention, the treatment to remove autofluorescence with lipofuscin was performed. First, the paraffinized brain section was immersed in 0.25% KMnO4 solution for 20 minutes. It was washed with PBS for 2 minutes twice, immersed in a 0.1% K2S2O5/oxalic acid solution for approximately 5 minutes, and further washed with PBS for 2 minutes 3 times.
(4) From 100 μM solution of the compounds of the present invention dissolved in 50% ethanol, approximately 150 μl was dropped on the section to react for 10 minutes. After being immersed in tap water 5 times, it was mounted with Flour Save Reagent (Calbiochem) and examined with a fluorescence microscope (Nikon, ECLIPSE 80i). The images were taken with a digital camera (Nikon, Dxin1200F or Photometrics, Cool SNAP ES).

The nature of series [3]: Evaluation of brain delivery of [^18F] THK-5105, [^18F] THK-5117 and [^18F] THK-5125 in mice. It is filed as in vivo, male ICR mice. Conditions: for delivery to and washout from the brain / % ID/g 2 minutes post-administration: mice; for delivery to and washout from the brain: compared with [^18F] BAY94-9172, [^18F] AV-45 and [^18F] FDDNP; for % ID/g 2 minutes post-administration: tail vein, brain; for 2 minutes post-administration/60 minutes post-administration: quotient of brain % ID/g values. Here is the method:
A physiological saline solution containing [^18F] THK-5105, [^18F] THK-5117, or [^18F] THK-5125 was administered into the tail vein of male ICR mice (6 to 7 weeks old), and brain delivery of these label compounds was assessed from the accumulation of radioactivity in brain and plasma tissues at two minutes post-injection.
As an index in the evaluation of radioactive accumulation, use was made of the percentage of radioactivity per unit weight of brain relative to the total radioactivity administered (% Injected Dose/g of tissue; % ID/g). For measurement of radioactivity, a gamma counter (1480 WIZARD, Perkin Elmer) was used. Experimental procedures were as follows. A label compound was administered into the tail vein of mice. Two minutes later, each mouse was subjected to cervical dislocation under ether anesthesia, and the whole brain, including the cerebellum and brain stem, was isolated immediately. The radioactivity and tissue weight of the sample were measured, and their data were used to calculate a % ID/g values for the labeled compound.

For series [4], the system named is neurofibrillary tangles (tau protein). The series is described as follows: Autoradiography experiments using [^18F] THK-5105, [^18F] THK-5117 and [^18F] THK-5125. Format: binding, human. Conditions: for affinity to neurofibrillary tangles (tau protein), autoradiography / accumulation in autoradiography of sections of the lateral temporal cortex and of the medial temporal cortex: Alzheimer's disease patient brain sections; for accumulation in autoradiography of sections of the lateral temporal cortex and of the medial temporal cortex: approximately 400 μCi/ml, 10 minutes. On the procedure:
Paraffin-embedded sections of the brain from an Alzheimer's disease patient were deparaffinized, and then immersed in PBS for 10 minutes. Approximately 400 μCi/ml of each of [^18F] THK-5105, [^18F] THK-5117, and [^18F] THK-5125 was added dropwise to deparaffinized sections and allowed to react for 10 minutes at room temperature. After that, the sections were immersed in distilled water for 2 minutes, shaken lightly in 50% EtOH for 2 minutes, immersed again in distilled water for 2 minutes, and dried in a paraffin stretching device. The section was left overnight in contact with an imaging plate. Next day, the image was read with a BAS 5000 (Fujifilm Corporation). In addition, adjacent sections were immunostained with anti-phosphorylated tau antibody (AT8).

The nature of series [5]: Evaluation of brain delivery of [^18F] THK-5105, [^18F] THK-5117 and [^18F] THK-5125 in mice. It is filed as in vivo, male ICR mice. Conditions: tail vein.
The conditions of series [6]: data taken from Zhang et al. 2005 / Choi et al. 2009, cited from earlier work; for % ID/g 2 minutes post-administration / % ID/g 60 minutes post-administration: brain; for 2 minutes post-administration/60 minutes post-administration: quotient of brain % ID/g values.

K18-ΔK280 aggregates, sequence (P10636 other isoform, or with tags, fused parts or gaps del 597-597): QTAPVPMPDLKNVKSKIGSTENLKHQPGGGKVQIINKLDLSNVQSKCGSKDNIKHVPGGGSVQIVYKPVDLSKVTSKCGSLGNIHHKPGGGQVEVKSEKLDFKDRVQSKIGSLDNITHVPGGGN

For the molecule `Nc1ccc(-c2ccc3cc(OCCF)ccc3n2)cc1` [THK-523, reference compound], the Ki in series [1] was determined as 0.0593 µM.
Take `CC(=C(C#N)C#N)c1ccc2cc(N(C)CCF)ccc2c1` [FDDNP, reference compound]: the Ki in series [1] came out at 0.256 µM.
As for `CNc1ccc(-c2ccc3cc(OCC(O)CF)ccc3n2)cc1` (stereo not shown) [THK-5117, 6-[(3-fluoro-2-hydroxy)propoxy]-2-(4-methylaminophenyl)quinoline], in series [2], the “binding to neurofibrillary tangles in the brain section of Alzheimer's disease patients (staining test)” value (“binding to neurofibrillary tangles” below) is “bind to neurofibrillary tangles specifically and selectively”. Also, in series [1], the Ki is 0.0105 µM.
For `CN(C)c1ccc(-c2ccc3cc(OC[C@H](O)C[18F])ccc3n2)cc1` [[^18F] THK-5105], in series [3], the “delivery to and washout from the brain” value is “superior in being delivered to and washed out from the brain”; the “% ID/g 2 minutes post-administration” value worked out at 9.20 % ID/g; the “2 minutes post-administration/60 minutes post-administration” value is 9.20. Moreover, in series [4], the “affinity to neurofibrillary tangles (tau protein), autoradiography” value is listed as “high affinity to neurofibrillary tangles (tau protein)”; the “accumulation in autoradiography of sections of the lateral temporal cortex and of the medial temporal cortex” value is “accumulated in the lateral temporal cortex and medial temporal cortex”. Also, the “correspondence of autoradiography / unlabeled staining image with anti-phosphorylated tau antibody (AT8) immunostaining” value in series [4] (hippocampus section and adjacent sections, higher magnification images) is recorded as “corresponded well with the image of immunostaining with the anti-phosphorylated tau antibody”. Moreover, the “% ID/g 60 minutes post-administration” value in series [5] was 1.00 % ID/g.
In the case of `CNc1ccc(/C=C/c2ccc(OCCOCCOCC[18F])nc2)cc1` [[^18F]AV-45], in series [6], the “% ID/g 2 minutes post-administration” value was 7.33 % ID/g, the “% ID/g 60 minutes post-administration” value is recorded as 1.88 % ID/g and the “2 minutes post-administration/60 minutes post-administration” value is reported as 3.90.
As for `CN(C)c1ccc(-c2ccc3cc(OCC(O)CF)ccc3n2)cn1` (stereo not shown) [THK-5129, 6-[(3-fluoro-2-hydroxy)propoxy]-2-(2-dimethylaminopyrid-5-yl)quinoline], in series [1], the inhibition constant (Ki) worked out at 0.0214 µM.
On the same count and under the same terms, the same measure for `CNc1ccc(-c2ccc3cc(OCC(O)CF)ccc3n2)cn1` (stereo not shown) [THK-5151, 2-(2-methylaminopyrid-5-yl)-6-[(3-fluoro-2-hydroxy)propoxy]quinoline]: 0.0401 µM.
`CNc1ccc(/C=C/c2ccc(OCCOCCOCC[18F])cc2)cc1` [[^18F]BAY94-9172]: in series [6], the “% ID/g 2 minutes post-administration” value is 7.77 % ID/g, the “% ID/g 60 minutes post-administration” value is 1.61 % ID/g and the “2 minutes post-administration/60 minutes post-administration” value is given as 4.83.
For `CCN(CC)c1ccc(-c2ccc3cc(OCC(O)CF)ccc3n2)cc1` (stereo not shown) [THK-5122, 6-[(3-fluoro-2-hydroxy)propoxy]-2-(4-diethylaminophenyl)quinoline], the Ki in series [1] was 0.0349 µM.
The same measure, in the same setting: next, `CCNc1ccc(-c2ccc3cc(OCC(O)CF)ccc3n2)cc1` (stereo not shown) [THK-5125, 2-(4-ethylaminophenyl)-6-[(3-fluoro-2-hydroxy)propoxy]quinoline]: 0.0092 µM.
Turning to `CC(=C(C#N)C#N)c1ccc2cc(N(C)CCF)ccc2c1` [[^18F]FDDNP, reference compound], in series [3], the “% ID/g 2 minutes post-administration” value was determined as 6.23 % ID/g and the “2 minutes post-administration/60 minutes post-administration” value is 2.91. Besides, the “% ID/g 60 minutes post-administration” value in series [5] was 2.14 % ID/g.
As to `CNc1ccc(-c2ccc3cc(OCC(O)C[18F])ccc3n2)cc1` (stereo not shown) [[^18F] THK-5117], in series [3], the “delivery to and washout from the brain” value is “superior in being delivered to and washed out from the brain”; the “% ID/g 2 minutes post-administration” value came out at 6.06 % ID/g; the “2 minutes post-administration/60 minutes post-administration” value is on record as 23.3. In addition, in series [4], the “affinity to neurofibrillary tangles (tau protein), autoradiography” value is on record as “high affinity to neurofibrillary tangles (tau protein)”; the “accumulation in autoradiography of sections of the lateral temporal cortex and of the medial temporal cortex” value is “accumulated in the lateral temporal cortex and medial temporal cortex”. The “% ID/g 60 minutes post-administration” value in series [5] turned out to be 0.26 % ID/g.
As for `Nc1ccc(-c2ccc3cc(OCC(O)CF)ccc3n2)cc1` (stereo not shown) [THK-5116, 2-(4-aminophenyl)-6-[(3-fluoro-2-hydroxy)propoxy]quinoline], the “binding to neurofibrillary tangles” value in series [2] was “bind to neurofibrillary tangles specifically and selectively”. Besides, the Ki in series [1] came to 0.036 µM.
Turning to `CCN(CC)c1ccc2nc(-c3ccc(F)nc3)ccc2c1` [THK-5088, 6-diethylamino-2-(2-fluoropyrid-5-yl)quinoline], the “binding to neurofibrillary tangles” value in series [2] was “bind to neurofibrillary tangles specifically and selectively”.
Consider `Nc1ccc(-c2ccc3ccc(OC(CO)CF)cc3n2)cn1` (stereo not shown) [THK-932, 2-(2-aminopyrid-5-yl)-7-(1-fluoromethyl-2-hydroxyethoxy)quinoline], for which, in series [2], the “binding to neurofibrillary tangles” value is “bind to neurofibrillary tangles specifically and selectively”.
On the same count and under the same terms, next, `CNc1ccc(-c2ccc3cc(N(C)C)ccc3n2)cc1OCC(O)CF` (stereo not shown) [THK-5164, 2-[3-[(3-fluoro-2-hydroxy)propoxy]-4-(methylamino)phenyl]-6-dimethylamino quinoline]: “bind to neurofibrillary tangles specifically and selectively”; `CCN(C)c1ccc(-c2ccc3ccc(OCC(O)CF)cc3n2)cc1` (stereo not shown) [THK-5112, 2-(4-ethylmethylaminophenyl)-7-[(3-fluoro-2-hydroxy)propoxy]quinoline]: “bind to neurofibrillary tangles specifically and selectively”; `CNc1ccc(-c2ccc3ccc(OCC(O)CF)cc3n2)cc1` (stereo not shown) [THK-5106, 7-[(3-fluoro-2-hydroxy)propoxy]-2-(4-methylaminophenyl)quinoline]: “bind to neurofibrillary tangles specifically and selectively”.
